Data as given in US20160122320A1, “USEFUL COMBINATIONS OF MONOBACTAM ANTIBIOTICS WITH BETA-LACTAMASE INHIBITORS” (Basilea Pharmaceutica AG, priority 2005, published 2016).

Key:
Assay in all cases: MIC, NCCLS broth microdilution
Assay type in all cases: cell-based
[1] = tested on: Pseudomonas aeruginosa 1973E; details: for MIC of antibiotic: antibiotic alone, no inhibitor
Method: Antimicrobial activity of the compounds and of their combinations was determined against a selection of organisms according to the standard procedures described by the National Committee for Clinical Laboratory Standards (National Committee for Clinical Laboratory. Standards (2000). Methods for Dilution Antimicrobial Susceptibility Tests for Bacteria That Grow Aerobically-Fifth Edition: Approved Standard M7-A5. NCCLS, Wayne, Pa., USA).
In all cases the final concentration of DMSO incubated with the bacteria is less than or equal to 1%. […] Plates were incubated overnight at an appropriate temperature (30° C. or 37° C.) and optical densities assessed by eye. The MIC value is defined as the lowest compound concentration completely inhibiting visible growth of the test organism. When combinations between compounds of formula I with compounds of formula II and are evaluated the compounds of formula I are tested in dilution series as described above while the compounds of formula II and III-XIII were present in all wells at a constant concentration of 4 μg/mL each.

[2] = tested on: Serratia marcescens S6; details: for MIC of antibiotic: antibiotic alone, no inhibitor
[3] = tested on: Stenotrophomonas malthophilia 1AC736; details: Stenotrophomonas maltophilia 1AC736; for MIC of antibiotic: antibiotic alone, no inhibitor
[4] = tested on: Klebsiella pneumoniae CF104; details: for MIC of antibiotic: antibiotic alone, no inhibitor
[5] = tested on: Pseudomonas aeruginosa MK1184; details: for MIC of antibiotic: antibiotic alone, no inhibitor
[6] = tested on: Acinetobacter sp. J2; details: Acinetobacter baumannii J2; for MIC of antibiotic: antibiotic alone, no inhibitor
[7] = tested on: Enterobacter cloacae P99; details: for MIC of antibiotic: antibiotic alone, no inhibitor

Row | Compound | MIC of antibiotic [1] [µg/mL] | MIC of antibiotic at fixed inhibitor concentration of 4 mg/L ([1]; with 102 and clavulanate) [µg/mL] | MIC of antibiotic at fixed inhibitor concentration of 4 mg/L ([1]; with 324 and clavulanate) [µg/mL] | MIC of antibiotic [2] [µg/mL] | MIC of antibiotic at fixed inhibitor concentration of 4 mg/L ([2]; with 102 and clavulanate) [µg/mL] | MIC of antibiotic at fixed inhibitor concentration of 4 mg/L ([2]; with 324 and clavulanate) [µg/mL] | MIC of antibiotic [3] [µg/mL] | MIC of antibiotic [4] [µg/mL] | MIC of antibiotic at fixed inhibitor concentration of 4 mg/L ([4]; with 102 and clavulanate) [µg/mL] | MIC of antibiotic at fixed inhibitor concentration of 4 mg/L ([4]; with 324 and clavulanate) [µg/mL] | MIC of antibiotic [5] [µg/mL] | MIC of antibiotic at fixed inhibitor concentration of 4 mg/L ([5]; with 102 and clavulanate) [µg/mL] | MIC of antibiotic at fixed inhibitor concentration of 4 mg/L ([5]; with 324 and clavulanate) [µg/mL] | MIC of antibiotic [6] [µg/mL] | MIC of antibiotic at fixed inhibitor concentration of 4 mg/L ([6]; with 102 and clavulanate) [µg/mL] | MIC of antibiotic at fixed inhibitor concentration of 4 mg/L ([6]; with 324 and clavulanate) [µg/mL] | MIC of antibiotic [7] [µg/mL] | MIC of antibiotic at fixed inhibitor concentration of 4 mg/L ([7]; with 102 and clavulanate) [µg/mL] | MIC of antibiotic at fixed inhibitor concentration of 4 mg/L ([7]; with 324 and clavulanate) [µg/mL] | MIC of antibiotic at fixed inhibitor concentration of 4 mg/L ([3]; with 102 and clavulanate) [µg/mL] | other results
1 | C[C@H](ON1C(=O)[C@@H](NC(=O)/C(=N\OCc2cc(=O)c(O)cn2O)c2csc(N)n2)[C@@H]1C)C(=O)O [Compound 23, (2S)-2-((3S,4S)-3-{(2Z)-2-(2-amino(1,3-thiazol-4-yl))-3-[(1,5-dihydroxy-4-oxo(2-hydropyridyl))methoxy]-3-azaprop-2enoylamino}-4-methyl-2-oxoazetidinyloxy)propanoic acid] | 8 | 8 | 16 | 0.25 | 0.25 | 0.25 | 1 | >32 | 1 | 1 | 8 | 8 | 8 | 16 | 8 | 8 | >32 | 8 | 4 | – | MIC of antibiotic at fixed inhibitor concentration of 4 mg/L ([1]; with 324 and sulbactam): 16 µg/mL; MIC of antibiotic at fixed inhibitor concentration of 4 mg/L ([2]; with 324 and sulbactam): 0.5 µg/mL; MIC of antibiotic at fixed inhibitor concentration of 4 mg/L ([4]; with 324 and sulbactam): 2 µg/mL; MIC of antibiotic at fixed inhibitor concentration of 4 mg/L ([5]; with 324 and sulbactam): 8 µg/mL; MIC of antibiotic at fixed inhibitor concentration of 4 mg/L ([6]; with 324 and sulbactam): 2 µg/mL; MIC of antibiotic at fixed inhibitor concentration of 4 mg/L ([7]; with 324 and sulbactam): 8 µg/mL
2 | NC(=O)OCC1C(NC(=O)C(=NOCc2cc(=O)c(O)cn2O)c2csc(N)n2)C(=O)N1OS(=O)(=O)O (stereo not drawn) [Compound 25] | 16 | 4 | 8 | 1 | 1 | 1 | 4 | >32 | 0.5 | 0.5 | >32 | 4 | 8 | >32 | 16 | >32 | >32 | 8 | 4 | 1 | MIC of antibiotic at fixed inhibitor concentration of 4 mg/L ([3]; with 324 and clavulanate): 1 µg/mL
3 | CC1C(NC(=O)C(=NOCc2cc(=O)c(O)cn2O)c2csc(NC=O)n2)C(=O)N1S(=O)(=O)O (stereo not drawn) [Compound 28] | >32 | 16 | – | 8 | 1 | – | 8 | >32 | 0.5 | – | >32 | 32 | – | >32 | >32 | – | >32 | >32 | – | 1 | –
